pIC50: −log10 of the molar value. Calls of active or inactive are those of the source. How the calls were made is not given here.
Tested on: M. tuberculosis H37Rv growth inhibition with meropenem
Assay: dose response, H37Rv, with and without meropenem (AID 434987);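 further: growth over 7 days at 37 °C before Alamar Blue read on day 9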
[1] = M. tuberculosis H37Rv growth inhibition, measured here: IC50 without meropenem
[2] = M. tuberculosis H37Rv growth inhibition, measured here: IC90 without meropenem
[3] = measured here: IC90 with meropenem

| Structure (SMILES) | pIC50 | pIC50 [1] | IC90 [2] [µM] | IC90 [3] [µM] | IC50 |
| --- | --- | --- | --- | --- | --- |
| COC(=O)c1c(C)n(-c2ccccc2)c2ccc(O)cc12 | 5.82 | < 4.00 | > 100 | > 100 |  |
| CCNc1nc(CN2CCCCC2)nc2scc(-c3ccccc3)c12 | 5.06 | 4.33 | > 100 | 57.3 |  |
| O=C(Nc1ccc(F)cc1)c1sc2cc(C(F)(F)F)cnc2c1-c1cccs1 |  | < 4.00 | > 100 | > 100 | > 100 µM (inactive) |
| Cc1cc(C(=O)CSc2nnnn2-c2ccccc2)c(C)n1-c1ccc2c(c1)OCO2 |  | 4.30 | > 100 | 60.9 | 44.9 µM (inactive) |
| Fc1ccc(-c2csc(NC(=S)Nc3ccccc3)n2)cc1 | 5.12 | < 4.00 | > 100 | > 50 |  |
| C=CCOc1ccc(C2N3CC4(C)CN2CC(CCC)(C3)C4=O)cc1 (configuration not stated) |  | < 4.00 | > 100 | > 100 | > 100 µM (inactive) |
| Cn1c2ccccc2c(=O)c2cc(C#CC3(O)CCCCC3)ccc21 |  | < 4.00 | > 100 | > 100 | > 100 µM (inactive) |
| Cc1cc(Br)ccc1NC(=O)CN1C(=O)C2CC=CCC2C1=O (configuration not stated) | 6.00 | 5.06 | 26.7 | 38.7 |  |
| COc1cc(OC)cc(-c2c(C#Cc3ccsc3)c3cc(-c4ccc(OC)nc4)ccc3n2C)c1 |  | < 4.00 | > 100 | > 100 | > 100 µM (inactive) |
| CC1CN(C2CCCCC2)c2nc3c(c(=O)[nH]c(=O)n3C)n2C1 (configuration not stated) |  | < 4.00 | > 100 | > 100 | > 100 µM (inactive) |
| Cc1c(-c2ccccc2)cnc2c(C)cccc12 |  | 4.02 | > 100 | > 100 | 59.9 µM (inactive) |
| O=C(Nc1ccccc1)c1c2c(nc3ccccc13)CCCC2 | 4.77 | < 4.00 | > 100 | > 25 |  |
| COc1cc2nc(N3CCN(C(=O)OCc4ccccc4)[C@H](C(=O)NC(C)(C)C)C3)nc(N)c2cc1OC |  | 4.19 | 92.7 | 84 | 64.5 µM (inactive) |
| COc1cccc(CNC(=O)C(Cc2ccccc2)n2cccc2)c1 (configuration not stated) |  | 4.17 | > 100 | > 100 | 50.7 µM (inactive) |
| Cc1ccc(-c2nc3ccccc3o2)cc1NC(=S)NC(=O)/C=C/c1ccco1 |  | < 4.00 | > 100 | > 100 | 65.8 µM (inactive) |
| COC(=O)c1c(NC(=O)C2c3ccccc3Oc3ccccc32)sc(C)c1C |  | < 4.00 | > 100 | > 100 | > 100 µM (inactive) |
| C=CCSc1nc2c(c(-c3ccsc3)c1C#N)CN(C)CC2 |  | 4.18 | > 100 | 55.1 | 50.6 µM (inactive) |
| Cc1cc(N2CCCCCC2)nc(-c2ccccc2O)n1 |  | 4.04 | > 100 | > 100 | 67.2 µM (inactive) |
| CCOC(=O)N1CCN(CC(=O)Nc2nnc(C(F)(F)F)s2)CC1 | 4.56 | < 4.00 | > 100 | 50.1 |  |
| Cc1ccc(CNC(=O)c2cn(C)c3ccc(S(=O)(=O)N4CCOCC4)cc3c2=O)cc1 |  | < 4.00 | > 100 | > 50 | > 50 µM (inactive) |

| Structure (SMILES) | pIC50 | pIC50 [1] | IC90 [2] [µM] | IC90 [3] [µM] | IC50 |
| --- | --- | --- | --- | --- | --- |
| O=C1C(Cl)=C(N2CCCCC2)C(=O)N1c1ccccc1 | 4.62 | < 4.00 | > 100 | > 50 |  |
| O=C(O)Cc1csc(Nc2cccc(Cl)c2)n1 |  | < 4.00 | > 100 | > 100 | > 100 µM (inactive) |
| CCCCC12CN3CC(C)(CN(C1)C3c1ccc([N+](=O)[O-])o1)C2=O (configuration not stated) | 5.39 | 4.57 | 98.7 | 23.5 |  |
| CC(C)(C)c1ccc(C(=O)Oc2ccc3c(c2)OCC3=O)cc1 | 5.06 | < 4.00 | > 100 | 29.4 |  |
| CSc1ccccc1NC(=O)c1c(Br)cnn1C | 4.55 | 4.08 | > 100 | > 100 |  |
| CN(c1ccc(C(=O)Nc2ccccc2Sc2ccccc2)cc1)S(C)(=O)=O |  | < 4.00 | > 100 | > 100 | > 100 µM (inactive) |
| Cc1cc(C)n(-c2nc3ccccc3c(=O)n2OCC(=O)N(C)C)n1 | 5.11 | 4.10 | > 100 | 23.3 |  |
| CCN(Cc1ccncc1)C(=O)C(CO)c1ccccc1 (configuration not stated) |  | < 4.00 | > 100 | > 100 | > 100 µM (inactive) |
| O=c1oc(-c2ccccc2F)nc2scc(-c3ccccc3)c12 | 5.66 | < 4.00 | > 100 | 3.05 |  |
| Cc1ccc(CN2CCSc3ccc(C(=O)NC4CCN(Cc5ccccc5)CC4)cc32)cc1 |  | < 4.00 | > 100 | > 100 | > 100 µM (inactive) |
| COc1ccc2[nH]cc(C(=O)CCl)c2c1 | 5.57 | 5.02 | 31 | > 100 |  |
| CC(C)NC(=S)NN=C1c2ccccc2-c2ccccc21 |  | 4.23 | > 100 | > 100 | 35.7 µM (inactive) |
| COc1ccc(N2C(=O)NC(=O)/C(=C\c3ccc([N+](=O)[O-])s3)C2=O)cc1 |  | 4.64 | 25.7 | 21.3 | 16.3 µM (inactive) |
| Cc1ccc(C)c(SCC(=O)OCC(=O)N2CC(C)OC(C)C2)c1 (configuration not stated) | 4.59 | < 4.00 | > 100 | > 100 |  |
| O=C(CSc1ccc([N+](=O)[O-])cn1)Nc1ccc(N2CCOCC2)cc1 | 5.32 | 4.75 | > 100 | > 100 |  |
| COc1ccc(NC(=O)COC(=O)Cc2ccc(-c3ccccc3)cc2)c(OC)c1 |  | < 4.00 | > 100 | > 100 | > 100 µM (inactive) |
| COc1ccc([N+](=O)[O-])cc1NS(=O)(=O)c1ccc(C(=O)N2CCCC2)cc1 |  | < 4.00 | > 100 | > 100 | > 100 µM (inactive) |
| COc1ccc(-c2csc(/C=C/c3ccc4c(c3)OCO4)n2)cc1OC | 4.79 | < 4.00 | > 100 | > 100 |  |
| Cn1c(/C=C/c2ccc(Cl)cc2)nc2ccccc2c1=O |  | < 4.00 | > 100 | > 100 | 52.1 µM (inactive) |
| O=C(CCSc1ccc(Cl)c(Cl)c1)NC12CC3CC(CC(C3)C1)C2 | 4.93 | 4.18 | > 100 | 12.3 |  |

| Structure (SMILES) | pIC50 | pIC50 [1] | IC90 [2] [µM] | IC90 [3] [µM] | IC50 |
| --- | --- | --- | --- | --- | --- |
| COc1ccc(S(=O)(=O)N(C(=O)c2ccncc2)c2ccc3oc4c(c3c2)CCCC4)cc1 |  | 4.02 | > 100 | > 100 | 99 µM (inactive) |
| COc1ccc(/C=N/Nc2nc(-c3ccc(C)cc3)c(NC(C)=O)s2)cc1 | 4.62 | < 4.00 | > 100 | > 100 |  |
| CC(=O)NC(c1cc(Cl)c2cccnc2c1O)C1CC1 (configuration not stated) | 4.64 | 4.13 | > 100 | > 100 |  |
| Cc1ccccc1NC(=O)c1ccc(CN(c2ccccc2)S(=O)(=O)c2ccccc2)cc1 |  | < 4.00 | > 100 | > 100 | > 100 µM (inactive) |
| CCC(C(=O)Nc1ccccc1N1CCCC1)c1ccccc1 (configuration not stated) |  | < 4.00 | > 100 | > 100 | 48.8 µM (inactive) |
| CCOC(=O)c1cc(C(=O)OCC)cc(-n2cc(O)c(C(=O)OCC)n2)c1 |  | < 4.00 | > 100 | > 100 | > 100 µM (inactive) |
| C=C(C)COc1ccc(-c2nc(N)ncc2Oc2ccc(OC)cc2)c(O)c1 |  | < 4.00 | > 100 | > 100 | > 100 µM (inactive) |
| COc1ccccc1/C=C/C(=O)NCC(=O)N/N=C/c1cc(Br)ccc1OC | 4.62 | < 4.00 | > 100 | > 100 |  |
| CCOc1ccc(NC(=O)/C(C#N)=C/c2cn(CC(=O)O)c3ccccc23)cc1 |  | < 4.00 | > 100 | > 100 | 95.9 µM (inactive) |
| Cc1cccc(NC(=O)Cn2c(=O)n(Cc3ccccc3)c(=O)c3c(C)c(C)sc32)c1 |  | < 4.00 | > 100 | > 100 | > 100 µM (inactive) |
| Cc1onc(-c2c(Cl)cccc2Cl)c1/C(N)=N/OC(=O)C1CC1 | 5.69 | < 4.00 | > 100 | > 25 |  |
| O=S(=O)(Cc1ccccc1)c1cnc2ccccc2n1 |  | 4.62 | 26.6 | 48.6 | 14.1 µM (inactive) |
| Cc1ccc(C)c(S(=O)(=O)N2CCN(CC(=O)NC(C)c3ccccc3)CC2)c1 (configuration not stated) |  | 4.00 | > 100 | > 100 | 98 µM (inactive) |
| CN(/N=C/c1ccncc1)c1cnc2ccccc2n1 |  | < 4.00 | > 100 | > 100 | 59.8 µM (inactive) |
| CCN1C(=O)C(=Cc2ccc(N3CCOCC3)o2)C(=O)N(CC)C1=S |  | < 4.00 | > 100 | > 100 | > 100 µM (inactive) |
| O=C(CC1SC(=O)NC1=O)Oc1ccc(/C=N/NC(=O)c2ccccc2O)cc1 (configuration not stated) | 5.19 | 4.38 | > 100 | > 100 |  |
| O=C(Nc1ccc(Cl)cc1F)c1cccc2ccccc12 |  | < 4.00 | > 100 | > 100 | > 100 µM (inactive) |
| C/C(=N\NC(=O)c1csc2ccccc12)c1ccc(O)cc1 |  | < 4.00 | > 100 | > 100 | > 100 µM (inactive) |
